pIC50: −log10 of the molar value.

This is an account of results in patent publication US20090136448A1, “Antiviral 2-Carboxy-Thiophene Compounds” (priority 2005, published 2009).

For experiment [1], the system named is HCV replication, genotype 1a (Huh-7 HCV replicon cell). Briefly: Replicon ELISA cell based assay, genotype 1a. As to conditions: Hepatitis C virus, Huh-7 HCV replicon cells, 72 hours, mean, assayed at least twice. The procedure:
(§1) Replicon ELISA Cell Based Assay
(§2) 100 μL of medium containing 10% FCS were added to each well of clear, flat-bottomed 96 well microplates, excepting wells in the top row. Test compound was diluted in assay medium to twice the final required starting concentration from a 40 mM stock solution in DMSO. 200 μL of the starting dilution were introduced into two wells each in the top row and doubling dilutions made down the plate by the sequential transfer of 100 μL aliquots with thorough mixing in the wells; the final 100 μL were discarded. The two bottom rows were not used for compound dilutions. Huh-7 HCV replicon cell monolayers nearing confluency were stripped from growth flasks with versene-trypsin solution and the cells were resuspended in assay medium at either 2×10^5 cells/mL (sub-line 5-15; genotype 1b; Lohmann, V., Korner, F., Koch, J-O., Herian, U., Thielmann, L. and Bartenschlager, R., Science, 1999, 285, 110-113) or at 3×10^5 cells/mL (genotype 1a; Gu, B., Gates, A. T., Isken, O., Behrens, S. E. and Sarisky, R. T., J. Virol., 2003, 77, 5352-5359). 100 μL of cell suspension were added to all wells and the plates incubated at 37° C. for 72 hours in a 5% CO2 atmosphere.
(§3) Following incubation, the assay medium was aspirated from the plates. The cell sheets were washed by gentle immersion in phosphate buffered saline (PBS), which was then aspirated off, and fixed with acetone:methanol (1:1) for 5 minutes. Following a further wash with PBS, 100 μL of ELISA diluent (PBS+0.05% v/v Tween 20+2% w/v skimmed milk powder) were added to all wells and the plates incubated at 37° C. for 30 minutes on an orbital platform. The diluent was removed and each well then received 50 μL of a 1/200 dilution of anti-HCV specific, murine, monoclonal antibody (either Virostat #1872 or #1877), except for wells in one of the compound-free control rows which received diluent alone to act as negative controls. The plates were incubated at 37° C. for 2 hours and washed 3 times with PBS/0.05% Tween 20, then 50 μL of horseradish peroxidase conjugated, anti-mouse, rabbit polyclonal serum (Dako #P0260), diluted 1/1000, were added to all wells. The plates were incubated for a further hour, the antibody removed and the cell sheets washed 5 times with PBS/Tween and blotted dry. The assay was developed by the addition of 50 μL of ortho-phenylenediamine/peroxidase substrate in urea/citrate buffer (SigmaFast, Sigma #P-9187) to each well, and colour allowed to develop for up to 15 minutes. The reaction was stopped by the addition of 25 μL per well of 2 M sulphuric acid and the plates were read at 490 nm on a Fluostar Optima spectrophotometer.
(§4) The substrate solution was removed and the plates were washed in tap water, blotted dry and the cells stained with 5% carbol fuchsin in water for 30 minutes. The stain was discarded and the cell sheets washed, dried and examined microscopically to assess cytotoxicity.
(§5) The absorbance values from all compound-free wells that had received both primary and secondary antibodies were averaged to obtain a positive control value. The mean absorbance value from the compound-free wells that had not received the primary antibody was used to provide the negative (background) control value. The readings from the duplicate wells at each compound concentration were averaged and, after the subtraction of the mean background from all values, were expressed as a percentage of the positive control signal. The quantifiable and specific reduction of expressed protein detected by the ELISA in the presence of a drug can be used as a measure of replicon inhibition. GraFit software (Erithacus Software Ltd.) was used to plot the curve of percentage inhibition against compound concentration and derive the 50% inhibitory concentration (IC50) for the compound.

For experiment [2], the system named is HCV replication, genotype 1b (Huh-7 HCV replicon cell, sub-line 5-15). Briefly: Replicon ELISA cell based assay, genotype 1b. As to conditions: Hepatitis C virus, Huh-7 HCV replicon cells, genotype 1b (sub-line 5-15), 72 hours, mean, assayed at least twice. As to the method: as §1, §2, §3, §4, §5

As to `CC(C)N(c1cc(-c2ccc(-c3cc4cnccc4o3)cc2)sc1C(=O)O)C(=O)[C@H]1CC[C@H](C)CC1` [Example 13, Sodium 5-(4-furo[3,2-c]pyridin-2-ylphenyl)-3-[[(trans-4-methylcyclohexyl)carbonyl](1-methylethyl)amino]-2-thiophenecarboxylate], the pIC50 in experiment [1] and in experiment [2] was 6.30 to 7.00 each time.

On to `CC(C)N(c1cc(-c2ccc(-c3cn4ccccc4n3)cc2)sc1C(=O)O)C(=O)[C@H]1CC[C@H](C(F)(F)F)CC1` [Example 14, 5-(4-Imidazo[1,2-a]pyridin-2-ylphenyl)-3-((1-methylethyl){[trans-4-(trifluoromethyl)cyclohexyl]carbonyl}amino)-2-thiophenecarboxylic acid], for which the pIC50 was 6.30 to 7.00 in experiment [1] and 6.00 to 6.30 in experiment [2].

For the compound `CC(C)N(c1cc(-c2ccc(-c3cc4ncccn4n3)cc2)sc1C(=O)O)C(=O)[C@H]1CC[C@H](C(F)(F)F)CC1` [Example 15, 3-((1-Methylethyl){[trans-4-(trifluoromethyl)cyclohexyl]carbonyl}-amino)-5-(4-pyrazolo[1,5-a]pyrimidin-2-ylphenyl)-2-thiophenecarboxylic acid], the pIC50 in experiment [1] is 6.30 to 7.00; in experiment [2], 7.00 to 7.30.

`CC(C)N(c1cc(-c2ccc(-c3nc4c(N)cccc4o3)cc2)sc1C(=O)O)C(=O)[C@H]1CC[C@H](C)CC1` [Example 16, 5-[4-(4-Amino-1,3-benzoxazol-2-yl)phenyl]-3-[[(trans-4-methylcyclohexyl)carbonyl](1-methylethyl)amino]-2-thiophenecarboxylic acid]: the pIC50 in experiment [1] and in experiment [2] was 7.30 to 8.00 in each case.

Consider `CC(C)N(c1cc(-c2ccc(-c3ccn4nccc4n3)cc2)sc1C(=O)O)C(=O)[C@H]1CC[C@H](C)CC1` [Example 17, 3-[[(trans-4-Methylcyclohexyl)carbonyl](1-methylethyl)amino]-5-(4-pyrazolo[1,5-a]pyrimidin-5-ylphenyl)-2-thiophenecarboxylic acid], for which the pIC50 in experiment [1] and in experiment [2] was 6.30 to 7.00 in each case.

Take `CC(C)N(c1cc(-c2ccc(-c3cc4ncccc4o3)nc2)sc1C(=O)O)C(=O)[C@H]1CC[C@H](C)CC1` [Example 18, 5-(6-Furo[3,2-b]pyridin-2-yl-3-pyridinyl)-3-[[(trans-4-methylcyclohexyl)carbonyl](1-methylethyl)amino]-2-thiophenecarboxylic acid]: the pIC50 in experiment [1] was 7.00 to 7.30; in experiment [2] it was 7.30 to 8.00.

As for `CC(C)N(c1cc(-c2ccc(-c3cc4cccc(O)c4o3)cc2)sc1C(=O)O)C(=O)[C@H]1CC[C@H](C)CC1` [Example 19, 5-[4-(7-Hydroxy-1-benzofuran-2-yl)phenyl]-3-[[(trans-4-methylcyclohexyl)carbonyl](1-methylethyl)amino]-2-thiophenecarboxylic acid], the pIC50 in experiment [1] and in experiment [2] was above 8.30 each time.

For `CC(C)N(c1cc(-c2ccc(-c3nc4cccc(O)c4o3)cc2)sc1C(=O)O)C(=O)[C@H]1CC[C@H](C)CC1` [Example 20, 5-[4-(7-Hydroxy-1,3-benzoxazol-2-yl)phenyl]-3-[[(trans-4-methylcyclohexyl)carbonyl](1-methylethyl)amino]-2-thiophenecarboxylic acid], the pIC50 is 6.30 to 7.00 in experiment [1] and 7.30 to 8.00 in experiment [2].

`CC(C)N(c1cc(-c2ccc(-c3cn4ccsc4n3)cc2)sc1C(=O)O)C(=O)[C@H]1CC[C@H](C(F)(F)F)CC1` [Example 21, 5-(4-Imidazo[2,1-b][1,3]thiazol-6-ylphenyl)-3-((1-methylethyl){[trans-4-(trifluoromethyl)cyclohexyl]carbonyl}amino)-2-thiophenecarboxylic acid]: the pIC50 in experiment [1] is 7.00 to 7.30; in experiment [2], 6.30 to 7.00.

For the compound `CC(C)N(c1cc(-c2ccc(-c3cc4ncccc4o3)cc2)sc1C(=O)O)C(=O)[C@H]1CC[C@H](C(F)(F)F)CC1` [Example 22, 5-(4-Furo[3,2-b]pyridin-2-ylphenyl)-3-((1-methylethyl){[trans-4-(trifluoromethyl)cyclohexyl]carbonyl}amino)-2-thiophenecarboxylic acid], the pIC50 in experiment [1] and in experiment [2] was 7.00 to 7.30 each time.

As to `CC(C)N(c1cc(-c2ccc(-c3nc4ccc(N)cc4o3)cc2)sc1C(=O)O)C(=O)[C@H]1CC[C@H](C)CC1` [Example 23, 5-[4-(6-Amino-1,3-benzoxazol-2-yl)phenyl]-3-[[(trans-4-methylcyclohexyl)carbonyl](1-methylethyl)amino]-2-thiophenecarboxylic acid], the pIC50 is 7.00 to 7.30 in experiment [1] and 7.30 to 8.00 in experiment [2].

On to `CC(C)N(c1cc(-c2ccc(-c3cc4cccnn4n3)cc2)sc1C(=O)O)C(=O)[C@H]1CC[C@H](C)CC1` [Example 24, 3-[[(trans-4-Methylcyclohexyl)carbonyl](1-methylethyl)amino]-5-(4-pyrazolo[1,5-b]pyridazin-2-ylphenyl)-2-thiophenecarboxylic acid], for which the negative-log IC50 (pIC50) in experiment [1] was 6.30 to 7.00; in experiment [2], 7.30 to 8.00.

Consider `CC(C)N(c1cc(-c2ccc(-c3nc4ncccc4o3)cc2)sc1C(=O)O)C(=O)[C@H]1CC[C@H](C(F)(F)F)CC1` [Example 25, 3-((1-Methylethyl){[trans-4-(trifluoromethyl)cyclohexyl]carbonyl}amino)-5-(4-[1,3]oxazolo[4,5-b]pyridin-2-ylphenyl)-2-thiophenecarboxylic acid], for which the pIC50 in experiment [1] and in experiment [2] was 6.30 to 7.00 throughout.

Turning to `Cc1ccn2nc(-c3ccc(-c4cc(N(C(=O)[C@H]5CC[C@H](C(F)(F)F)CC5)C(C)C)c(C(=O)O)s4)cc3)cc2n1` [Example 26, 3-((1-Methylethyl){[trans-4-(trifluoromethyl)cyclohexyl]carbonyl}amino)-5-[4-(5-methylpyrazolo[1,5-a]pyrimidin-2-yl)phenyl]-2-thiophenecarboxylic acid], the pIC50 was 6.30 to 7.00 in experiment [1] and 6.00 to 6.30 in experiment [2].

Turning to `CC(C)N(c1cc(-c2ccc(-c3cn4cc(N)ccc4n3)cc2)sc1C(=O)O)C(=O)[C@H]1CC[C@H](C)CC1` [Example 27, 5-[4-(6-Aminoimidazo[1,2-a]pyridin-2-yl)phenyl]-3-[[(trans-4-methylcyclohexyl)carbonyl](1-methylethyl)amino]-2-thiophenecarboxylic acid], the negative logarithm of the IC50 (pIC50) in experiment [1] and in experiment [2] was 6.30 to 7.00 in each case.

Consider `CC(C)N(c1cc(-c2ccc(-c3ccc4nc[nH]c4c3)cc2)sc1C(=O)O)C(=O)[C@H]1CC[C@H](C)CC1` [Example 28, 5-[4-(1H-Benzimidazol-5-yl)phenyl]-3-[[(trans-4-methylcyclohexyl)carbonyl](1-methylethyl)amino]-2-thiophenecarboxylic acid], for which the pIC50 in experiment [1] and in experiment [2] was 6.30 to 7.00 in each case.

On to `CC(C)N(c1cc(-c2ccc(-c3cc4cc(N)ccc4o3)cc2)sc1C(=O)O)C(=O)[C@H]1CC[C@H](C)CC1` [Example 29, 5-[4-(5-Amino-1-benzofuran-2-yl)phenyl]-3-[[(trans-4-methylcyclohexyl)carbonyl](1-methylethyl)amino]-2-thiophenecarboxylic acid], for which the pIC50 in experiment [1] and in experiment [2] was 6.30 to 7.00 throughout.

Take `CC(C)N(c1cc(-c2ccc(-c3cc4ccc(N)cc4o3)cc2)sc1C(=O)O)C(=O)[C@H]1CC[C@H](C)CC1` [Example 30, 5-[4-(6-Amino-1-benzofuran-2-yl)phenyl]-3-[[(trans-4-methylcyclohexyl)carbonyl](1-methylethyl)amino]-2-thiophenecarboxylic acid]: the figures for the pIC50 in experiment [1] and in experiment [2] were 6.30 to 7.00 and 6.00 to 6.30, respectively.
